Test results from patent publication US10104891B2 (priority 2014, dated 2018).

Legend:
[1] = system: Plasmopara viticola; test: Test 3: control effect against grape downy mildew; assay type: in vivo; details: Plasmopara viticola, 120 h, control value vs untreated section
Summary of the method: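 Leaf lesion area, scored 5 days after inoculation and compared with untreated plants, gives the control value. Inoculation used P. viticola zoospores (1.0×10^4 units/ml) with a 16 hr moist incubation at 22° C. It followed by one day a spray of 4 ppm compound (wettable powder in Tween20) onto Neomuscat seedlings.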

[2] = system: Pseudoperonospora cubensis; test: Test 2: control effect against cucumber downy mildew; assay type: in vivo; details: Pseudoperonospora cubensis, 120 h, control value vs untreated section
Summary of the method: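 Protective test: zoospores (1.0×10^4 units/ml) misted one day after applying a 4 ppm suspension (wettable powder diluted in 1/5000 Tween20) to 2-leaf cucumber, Sagami hanjiro. After 16 hr at 22° C humid incubation, leaf lesion area read at day 5, expressed as control value versus untreated leaves.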

[3] = system: Phytophthora infestans; test: whole plant or invertebrate; assay type: in vivo; details: Phytophthora infestans, in Solanum lycopersicum, 96 h, read-out: control value (Test 1)
[4] = system: Pythium graminicola; test: Test 4: control effect against rice damping-off by the Pythium fungus (soil lavage); assay type: in vivo; details: 1,000 ppm, 2.5 ml test suspension drenched on contaminated soil, rice (koshihikari)
Summary of the method: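 Compound at 1,000 ppm in 1/5000 Tween20 was drenched (2.5 ml) onto Koshihikari rice seeds, 3 pre-sprouted seeds per cell, sown in soil infested with Pythium graminicola (5 g/kg). Regime: 28 °C for 72 h, 5 °C for 2 days, then 25 °C for 14 days. Dead and stunted seedlings were scored into an onset rate, and control value = (1 − treated/untreated) × 100.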

| Structure (SMILES) | melting point | pest or weed control at 4 µg/mL [1] | pest or weed control at 4 µg/mL [2] | pest or weed control at 4 µg/mL [3] | pest or weed control at 1000 ppm [4] |
| --- | --- | --- | --- | --- | --- |
| Cc1cc(C(F)(F)F)nn1CC(=O)N1CCC(c2nc(C3OCc4c(F)ccc(OS(C)(=O)=O)c4CO3)cs2)CC1 (centres unmarked) [Compound 1-8, 4-[4-(6-fluoro-9-methylsulfonyloxy-1,5-dihydro-3H-2,4-benzodioxepin-3-yl)-2-thiazolyl]-1-[2-[5-methyl-3-(trifluoromethyl)-1H-pyrazole-1-yl]acetyl]piperidine] | 151 °C | 100% | 100% | 100% | – |
| COc1ccc(F)c2c1COC(c1csc(C3CCN(C(=O)Cn4nc(C(F)(F)F)cc4C)CC3)n1)OC2 (centres unmarked) [Compound 1-133, 4-[4-(6-fluoro-9-methoxy-1,5-dihydro-3H-2,4-benzodioxepin-3-yl)-2-thiazolyl]-1-[2-[5-methyl-3-(trifluoromethyl)-1H-pyrazole-1-yl]acetyl]piperidine] | – | 100% | 100% | 100% | ≥ 90% |
| Cc1ccc(C)c(NC(=O)N2CCC(c3nc(C4OCc5cccc(OS(C)(=O)=O)c5CO4)cs3)CC2)c1 (centres unmarked) [Compound 2-5, 4-[4-(6-methylsulfonyloxy-1,5-dihydro-3H-2,4-benzodioxepin-3-yl)-2-thiazolyl]-1-[N-(2,5-dimethylphenyl)carbamoyl]piperidine] | – | 100% | 100% | 100% | ≥ 90% |
| Cc1ccc(C)c(N(C)C(=O)N2CCC(c3nc(C4OCc5c(F)ccc(OS(C)(=O)=O)c5CO4)cs3)CC2)c1 (centres unmarked) [Compound 2-55, 4-[4-(6-fluoro-9-methylsulfonyloxy-1,5-dihydro-3H-2,4-benzodioxepin-3-yl)-2-thiazolyl]-1-[N-(2,5-dimethylphenyl)-N-methylcarbamoyl]piperidine] | – | 100% | 100% | 100% | ≥ 90% |
| Cc1cc(C(F)(F)F)nn1CC(=O)N1CCC(c2nc(C3OCc4c(Br)ccc(Br)c4CO3)cs2)CC1 [Compound 1-100, 4-[4-(6,9-dibromo-1,5-dihydro-3H-2,4-benzodioxepin-3-yl)-2-thiazolyl]-1-[2-[5-methyl-3-(trifluoromethyl)-1H-pyrazole-1-yl]acetyl]piperidine] | – | 100% | 100% | 100% | ≥ 90% |
| Cc1cc(C(F)(F)F)nn1CC(=O)N1CCC(c2nc(C3OCc4cccc(CCl)c4CO3)cs2)CC1 (centres unmarked) [Compound 1-69, 4-[4-[6-(chloromethyl)-1,5-dihydro-3H-2,4-benzodioxepin-3-yl]-2-thiazolyl]-1-[2-[5-methyl-3-(trifluoromethyl)-1H-pyrazole-1-yl]acetyl]piperidine] | – | 100% | 60% | 100% | ≥ 90% |
| Cc1cc(C(F)(F)F)nn1CC(=O)N1CCC(c2nc(C3OCc4c(OS(C)(=O)=O)ccc([N+](=O)[O-])c4CO3)cs2)CC1 (centres unmarked) [Compound 1-32, 4-[4-(6-methylsulfonyloxy-9-nitro-1,5-dihydro-3H-2,4-benzodioxepin-3-yl)-2-thiazolyl]-1-[2-[5-methyl-3-(trifluoromethyl)-1H-pyrazole-1-yl]acetyl]piperidine] | – | 100% | 100% | 100% | ≥ 90% |
| Cc1cc(C(F)(F)F)nn1CC(=O)N1CCC(c2nc(C3OCc4ccc(F)cc4CO3)cs2)CC1 (centres unmarked) [Compound 1-11, 4-[4-(7-fluoro-1,5-dihydro-3H-2,4-benzodioxepin-3-yl)-2-thiazolyl]-1-[2-[5-methyl-3-(trifluoromethyl)-1H-pyrazole-1-yl]acetyl]piperidine] | – | 100% | 100% | 100% | ≥ 90% |
| COc1cccc2c1COC(c1csc(C3CCN(C(=O)Cn4nc(C(F)(F)F)cc4C(F)(F)F)CC3)n1)OC2 (centres unmarked) [Compound 1-140, 4-[4-(6-methoxy-1,5-dihydro-3H-2,4-benzodioxepin-3-yl)-2-thiazolyl]-1-[2-[3,5-bis(trifluoromethyl)-1H-pyrazole-1-yl]acetyl]piperidine] | – | 100% | 100% | 100% | ≥ 90% |
| Cc1ccc(OS(C)(=O)=O)c2c1COC(c1csc(C3CCN(C(=O)Cn4nc(C(F)F)cc4C(F)F)CC3)n1)OC2 (centres unmarked) [Compound 1-44, 4-[4-(6-methyl-9-methylsulfonyloxy-1,5-dihydro-3H-2,4-benzodioxepin-3-yl)-2-thiazolyl]-1-[2-[3,5-bis(difluoromethyl)-1H-pyrazole-1-yl]acetyl]piperidine] | – | 100% | 100% | 100% | ≥ 90% |
| Cc1cc(C(F)(F)F)nn1CC(=O)N1CCC(c2nc(C3OCc4cccc(OS(C)(=O)=O)c4CO3)cs2)CC1 (centres unmarked) [Compound 1-6, 4-[4-(6-methylsulfonyloxy-1,5-dihydro-3H-2,4-benzodioxepin-3-yl)-2-thiazolyl]-1-[2-[5-methyl-3-(trifluoromethyl)-1H-pyrazole-1-yl]acetyl]piperidine] | – | 100% | 100% | 100% | ≥ 90% |
